Results taken from US8889391B1 (Cargill, Incorporated, priority 2006, dated 2014).
Read-outs that look alike come from different tables or passages of the source.

Tests used:
[1] = tested on: BAAT (BAAT5-9) in E. coli 11303 Δpta ΔadhE ΔfrdABCD ΔldhA Δpan(C-D) ΔpoxB INT(BAAT5-9/PpmmsB31) carrying pCEC/SapanD; assay: microbe, parasite or virus in culture; conditions: for inhibition at 20000 µM / inhibition at 100000 µM: Escherichia coli
Method: A culture of E. coli 11303 Δpta ΔadhE ΔfrdABCD ΔldhA Δpan(C-D) ΔpoxB INT(BAAT5-9/PpmmsB31) carrying the vector pCEC/SapanD was grown in LB media with chloramphenicol at 30° C. This culture was used to inoculate 20 mL modified Overnight Express media (Novagen) to an initial OD600 of 0.05 in a 125 mL flask. Modification to the media included the replacement of Solution 1 with glucose at a concentration of 0.1% and arabinose at 2%, and addition of 20 uM Ca^2+ pantothenate, 25 ug/mL chloramphenicol, 100 uM pyridoxine-HCl and 1 mM IPTG. […] Glucose biotransformation medium consisted of M9 salts, 100 mM MOPS pH 8, 1% glucose, 500 uM IPTG, and 50 uM pyridoxine-HCl.
For aerobic biotransformations, 900 uL of the resuspended culture was aliquoted to a 14 mL Falcon tube and the volume was brought to 1 mL with water and/or sodium acetate (pH 7). For anaerobic biotransformations, 1.35 mL of the resuspended culture was aliquoted to a 1.8 mL glass vial and the volume was brought to 1.5 mL with water and/or sodium acetate(pH 7). Final concentrations of sodium acetate added were 0, 20 mM, and 100 mM, and biotransformation incubations were at 30° C. with shaking at 225 rpm. […] Culture supernatants were acidified with 0.05 volumes of 90% formic acid, centrifuged, filtered, and analyzed for 3-HP production as described in Example 8.

[2] = biological target: BAAT-3-HP dehydrogenase system: Streptomyces avermitilis BAAT variant BAAT5-9 (P3H, S24T, D110N, F113L, A133T), SEQ ID NO: 19, coupled with P. putida 3-HP dehydrogenase (PpmmsB31), SEQ ID NO: 27 (Streptomyces avermitilis, UniProt Q82ER2, D110N/F113L/P3H/S24T); assay: biochemical; conditions: pH 8, read-out: reduction of activity of the BAAT-3-HP dehydrogenase system
Method: The effect of acetate on the in vitro biological activity of BAAT enzymes in cell extracts was also measured using a coupled assay in which the malonyl semialdehyde product of the reaction catalyzed by BAAT was reduced by a 3-HP dehydrogenase. An extract of cells carrying the integrated BAAT5-9/PpmmsB31 was made by resuspending cells collected by centrifugation with Bugbuster (EMD/Novagen, Madison Wis.) as described by the manufacturer. […] The progress of the reaction was monitored as the decrease in A340 due to oxidation of the NADH. The effect of acetate or pyruvate was determined by adding up to 20 mM of either compound (as the neutral Na^+ salt).

O=CCC(=O)O = assay: purified protein, by the assay type; conditions: other: purified enzyme; NADH is the preferred reductant
[3] = substrate: NCCC(=O)O; assay: purified protein, by the assay type; type: biochemical, Streptomyces avermitilis; conditions: other: pH 8.0, 10 mM alpha-ketoglutarate, 25° C.
Method: Incubations were carried out at 25° C., and aliquots of 0.05 mL were removed at intervals of 30 seconds and added to 0.15 mL of reaction quench buffer (50% formic acid/50% 50 mM HEPPS pH 8). L-glutamate was determined by high-pressure ion exchange chromatography on an AMINOSep-511 column (Transgenomic) developed using mobile phases of pH 3.28 and pH 7.48 buffers from Pickering, followed by post-column derivatization with O-phthalaldehyde and fluorometric detection.

[4] = substrate: NCCC(=O)O; assay: purified protein, by the assay type; conditions: other: pH 8.0, 10 mM alpha-ketoglutarate, 25° C.
[5] = substrate: O=CCC(=O)O; assay: ydfG dehydrogenase kinetics, purified enzyme; type: biochemical, E. coli; conditions: other: purified enzyme; NADPH is the only cofactor used; 58.0 °C
Method: The ydfG gene was cloned into the pET28b vector (Novagen, Madison, Wis.) to allow purification and kinetic studies on purified protein. The primers used for this cloning had restriction sites added to allow cloning into NdeI and BamHI sites. […] (SEQ ID NO: 32) and […] (SEQ ID NO: 33). Fragment amplification was performed using Pfu DNA polymerase to minimize amplification errors, and used an annealing temperature of 58° C. A PCR product band of approximately 750 bp was gel-purified, digested with NdeI and BamHI, and ligated, using an NEB Quick Ligation method (New England BioLabs, Waverly Mass.), into pET28B vector that had been digested with the same enzymes. The ligation reaction was transformed into E. coli Electromax™ DH10B™ cells and plated on LB medium containing 25 μg/ml kanamycin. Plasmid DNA from a colony showing the correct insert size was sequenced and shown to be identical to the ydfG sequence from E. coli MG1655.

[6] = read-out: reduction in 3-HP from beta-alanine
[7] = read-out: reduction in 3-HP from glucose

`CC(=O)O` [acetate] showed an inhibition at 20000 µM [1, 6] of 22%, an inhibition at 100000 µM [1, 6] of 47% and an inhibition at 20000 µM [1, 7] of 28%. The inhibition at 100000 µM [1, 7] was 52%, the “reduction in 3-HP” value ([1]; anaerobic conditions, acetate added (20 mM and 100 mM)) was 8-29% and the inhibition at 10000 µM [2] was ~50%.

`CC(=O)C(=O)O` [pyruvate] gave an inhibition at 10000 µM [2] of ~50%.

Work on “Pseudomonas aeruginosa 3-HP dehydrogenase (PammsB), SEQ ID NO: 21 (Pseudomonas aeruginosa PAO1)” yielded a Km (O=CCC(=O)O) of 4.5 mM.

B1: Streptomyces avermitilis BAAT variant BAAT3ML (P3H, S24T, F113L, A133T), SEQ ID NO: 17 (Streptomyces avermitilis MA-4680 = NBRC 14893; F113L/P3H/S24T) (protein)
chain: MTHQPNPQVGAAVKAADRAHVFHTWSAQELIDPLAVAGAEGSYFWDYDGRRYLDFTSGLVFTNIGYQHPKVVAAIQEQAASLTTFAPAFAVEARSEAARLIAERTPGDLDKILFTNGGADAIEHAVRMARIHTGRPKVLSAYRSYHGGTQQAVNITGDPRRWASDSASAGVVHFWAPYLYRSRFYAETEQQECERALEHLETTIAFEGPGTIAAIVLETVPGTAGIMVPPPGYLAGVRELCDKYGIVFVLDEVMAGFGRTGEWFAADLFDVTPDLMTFAKGVNSGYVPLGGVAISGKIAETFGKRAYPGGLTYSGHPLACAAAVATINVMAEEGVVENAANLGARVIEPGLRELAERHPSVGEVRGVGMFWALELVKDRETREPLVPYNAAGEANAPMAAFGAAAKANGLWPFINMNRTHVVPPCNVTEAEAKEGLAALDAALSVADEYTV
Molecule B1 has a Km [3] of 21 mM.

B2: Streptomyces avermitilis BAAT variant BAAT5-9 (P3H, S24T, D110N, F113L, A133T), SEQ ID NO: 19 (Streptomyces avermitilis MA-4680 = NBRC 14893; … (protein)
chain: MTHQPNPQVGAAVKAADRAHVFHTWSAQELIDPLAVAGAEGSYFWDYDGRRYLDFTSGLVFTNIGYQHPKVVAAIQEQAASLTTFAPAFAVEARSEAARLIAERTPGDLNKILFTNGGADAIEHAVRMARIHTGRPKVLSAYRSYHGGTQQAVNITGDPRRWASDSASAGVVHFWAPYLYRSRFYAETEQQECERALEHLETTIAFEGPGTIAAIVLETVPGTAGIMVPPPGYLAGVRELCDKYGIVFVLDEVMAGFGRTGEWFAADLFDVTPDLMTFAKGVNSGYVPLGGVAISGKIAETFGKRAYPGGLTYSGHPLACAAAVATINVMAEEGVVENAANLGARVIEPGLRELAERHPSVGEVRGVGMFWALELVKDRETREPLVPYNAAGEANAPMAAFGAAAKANGLWPFINMNRTHVVPPCNVTEAEAKEGLAALDAALSVADEYTV
Molecule B2 has a Km [3] of 25 mM.

B3: Streptomyces avermitilis BAAT variant BAAT3 (S24T, F113L, A133T), SEQ ID NO: 12 (Streptomyces avermitilis MA-4680 = NBRC 14893; F113L/S24T) (protein)
chain: MTPQPNPQVGAAVKAADRAHVFHTWSAQELIDPLAVAGAEGSYFWDYDGRRYLDFTSGLVFTNIGYQHPKVVAAIQEQAASLTTFAPAFAVEARSEAARLIAERTPGDLDKILFTNGGADAIEHAVRMARIHTGRPKVLSAYRSYHGGTQQAVNITGDPRRWASDSASAGVVHFWAPYLYRSRFYAETEQQECERALEHLETTIAFEGPGTIAAIVLETVPGTAGIMVPPPGYLAGVRELCDKYGIVFVLDEVMAGFGRTGEWFAADLFDVTPDLMTFAKGVNSGYVPLGGVAISGKIAETFGKRAYPGGLTYSGHPLACAAAVATINVMAEEGVVENAANLGARVIEPGLRELAERHPSVGEVRGVGMFWALELVKDRETREPLVPYNAAGEANAPMAAFGAAAKANGLWPFINMNRTHVVPPCNVTEAEAKEGLAALDAALSVADEYTV
In the case of B3, the Km [3] is reported as 14.7 mM.

B4: Streptomyces avermitilis BAAT variant BAAT1 (S24T), SEQ ID NO: 6 (Streptomyces avermitilis MA-4680 = NBRC 14893; S24T) (protein)
chain: MTPQPNPQVGAAVKAADRAHVFHTWSAQELIDPLAVAGAEGSYFWDYDGRRYLDFTSGLVFTNIGYQHPKVVAAIQEQAASLTTFAPAFAVEARSEAARLIAERTPGDLDKIFFTNGGADAIEHAVRMARIHAGRPKVLSAYRSYHGGTQQAVNITGDPRRWASDSASAGVVHFWAPYLYRSRFYAETEQQECERALEHLETTIAFEGPGTIAAIVLETVPGTAGIMVPPPGYLAGVRELCDKYGIVFVLDEVMAGFGRTGEWFAADLFDVTPDLMTFAKGVNSGYVPLGGVAISGKIAETFGKRAYPGGLTYSGHPLACAAAVATINVMAEEGVVENAANLGARVIEPGLRELAERHPSVGEVRGVGMFWALELVKDRETREPLVPYNAAGEANAPMAAFGAAAKANGLWPFINMNRTHVVPPCNVTEAEAKEGLAALDAALSVADEYTV
For B4, the Km [3] was 7.3 mM.

B5: Streptomyces avermitilis beta-alanine/alpha-ketoglutarate aminotransferase (BAAT), wild type, SEQ ID NO: 4 (Streptomyces avermitilis MA-4680 = NBRC 14893) (protein)
chain: MTPQPNPQVGAAVKAADRAHVFHSWSAQELIDPLAVAGAEGSYFWDYDGRRYLDFTSGLVFTNIGYQHPKVVAAIQEQAASLTTFAPAFAVEARSEAARLIAERTPGDLDKIFFTNGGADAIEHAVRMARIHAGRPKVLSAYRSYHGGTQQAVNITGDPRRWASDSASAGVVHFWAPYLYRSRFYAETEQQECERALEHLETTIAFEGPGTIAAIVLETVPGTAGIMVPPPGYLAGVRELCDKYGIVFVLDEVMAGFGRTGEWFAADLFDVTPDLMTFAKGVNSGYVPLGGVAISGKIAETFGKRAYPGGLTYSGHPLACAAAVATINVMAEEGVVENAANLGARVIEPGLRELAERHPSVGEVRGVGMFWALELVKDRETREPLVPYNAAGEANAPMAAFGAAAKANGLWPFINMNRTHVVPPCNVTEAEAKEGLAALDAALSVADEYTV
In the case of B5, the Km [4] is reported as 2.5 mM.

B6: E. coli ydfG protein, SEQ ID NO: 31 (Escherichia coli K-12) (protein)
chain: MIVLVTGATAGFGECITRRFIQQGHKVIATGRRQERLQELKDELGDNLYIAQLDVRNRAAIEEMLASLPAEWCNIDILVNNAGLALGMEPAHKASVEDWETMIDTNNKGLVYMTRAVLPGMVERNHGHIINIGSTAGSWPYAGGNVYGATKAFVRQFSLNLRTDLHGTAVRVTDIEPGLVGGTEFSNVRFKGDDGKAEKTYQNTVALTPEDVSEAVWWVSTLPAHVNINTLEMMPVTQSYAGLNVHRQ
B6 showed a Km [5] of 3.7 mM.
